What was measured:
HD-MSNs [1] = assay: HD-MSN death (SYTOX assay); survival of striatal neurons; type: cell-based, human; details: treated from PID14 every four days for 16 days
Procedure: (§1) FIG. 1A-FIG. 1E is an exemplary embodiment showing autophagy activator rescues HD-MSNs from degeneration in accordance with the present disclosure. FIG. 1A depicts the chemical structure of Ex 3. FIG. 1B includes a representative immunoblot (left) for steady state levels of α1-antitrypsin Z variant (ATZ) and β-actin in the HTO/Z cell line model of α1-antitrypsin deficiency after 24 hr treatment with DMSO alone or Ex 3 in DMSO at 0.5 and 2.5 μM and a bar graph showing the normalized intensity (right) calculated from immunoblot images for 0.5 μM versus DMSO control (Individual data plotted, n=4 biological replicates; *p=0.003 by t-test; mean+/−s.e.m). FIG. 1C includes an immunoblot for p62 and GAPDH in HD-MSNs treated with DMSO or 0.5 μM Ex 3 at PID26 (left) and a bar graph showing intensity values were normalized by GAPDH intensities and the relative fold change over DMSO condition was calculated from immunoblot images of three independent HD-MSN lines (right). Each dot represents reprogrammed MSNs from three independent HD-MSN lines. […] FIG. 1E includes example photographs (top) of HD-MSNs treated with DMSO or 0.5 μM Ex 3 (PID 30) expressing the tandem monomeric RFP-GFP-LC3 reporter and a bar graph (bottom) showing quantification of autophagosome (i.e., RFP+, GFP+ puncta) and autolysosome (i.e., RFP+, GFP− puncta) compartments from three independent HD-MSNs. […]

p62/SQSTM1 in HD-MSNs = assay: p62 immunoblot in HD-MSNs; type: cell-based, human; details: 0.5 μM, PID26, vs DMSO
Procedure: as §1

[2] = Liver microsomal stability, mouse; type: in vitro ADME; details: mouse liver microsomes; read-out: LM stability Mouse t ½
Excerpt: (§2) As described herein, continued lead optimization afforded potent quinolones.

HD-MSNs [3] = assay: Caspase 3/7 activation and Annexin V signal in HD-MSNs; type: cell-based, human; details: HD-MSNs at PID30; 0.125, 0.25 or 0.5 uM
Procedure: as §1

[4] = test system: mHTT inclusion bodies in HD-MSNs; assay: HTT inclusion bodies in HD-MSNs; type: cell-based, human; details: 0.5 μM, PID30, vs DMSO
Procedure: as §1

HD-MSNs [5] = assay: Autophagic vacuoles by CYTO-ID green in HD-MSNs; type: cell-based, human; details: 0.5 μM, PID26, vs DMSO
Procedure: as §1

[6] = test system: HD-MSNs expressing the RFP-GFP-LC3 reporter; assay: Tandem RFP-GFP-LC3 reporter in HD-MSNs; type: cell-based, human; details: 0.5 μM, PID30, vs DMSO
Procedure: as §1

[7] = Liver microsomal stability, human; type: in vitro ADME; details: human liver microsomes; read-out: LM stability Human t ½
Excerpt: as §2

Row | SMILES | HD-MSN death (SYTOX-positive cells) (HD-MSNs [1]) | p62/SQSTM1 protein levels (p62/SQSTM1 in HD-MSNs) | half-life [2] [h] | Annexin V signal (HD-MSNs [3]) | activated Caspase 3/7 signal (HD-MSNs [3]) | number of mHTT inclusion bodies [4] | number of autophagic vacuoles (CYTO-ID signals) (HD-MSNs [5]) | average number of autophagosomes and autolysosomes [6] | half-life [7] [h]
1 | O=c1ccc2c(Cl)cc(Cl)cc2[nH]1 [Ex 3, 5,7-dichloro-1H-quinolin-2-one] | significant reduction in HD-MSN death in a dose-dependent manner | decreased p62/SQSTM1 protein levels | 0.07 | significant reduction | significant reduction | reduced the number of mHTT inclusion bodies | increased the number of autophagic vacuoles | increased the average number of autophagosomes and autolysosomes | 
2 | O=c1ccc2c(C(F)(F)F)c(-c3ccc(Cl)cn3)ccc2[nH]1 [Ex 97, 6-(5-chloropyridin-2-yl)-5-(trifluoromethyl) quinolin-2 (1H)-one] |  |  | > 2.42 |  |  |  |  |  | > 2.42
